Source: patent EP0497988A1, “ANTIVIRAL AGENT” (DAINIPPON INK AND CHEMICALS, INC., priority 1990, dated 1992)
In brackets after ≈: the same amount, converted by molar mass.

Key:
HTLV-IIIB = assay: Anti-HIV activity by MTT (tetrazolium) method in MT-4 cells; type: cell-based; settings: for EC₅₀: MT-4 cells infected with HTLV-IIIB, MOI 0.01, 5 days, MTT
Protocol: (§1) Test Method: MMT (the tetrazolium assay) method Cell: MT-4 Cell Virus: HTLV-IIIB (Infection : 3 x 10⁵ plaque forming units (PFU)/ml) MT-4 cells were suspended in a culture medium at 2 x 10⁵ cells/ml and infected with HIV-IIIB at a multiplicity of infection of 0.01. Immediately after infection, 100µl of cell suspension was placed into microtiter tray wells containing various concentrations of the test samples. At the same time, the mock-infected cells were also cultured together with the samples in order to assess the cell toxicity of the test samples to the MT-4 cell. They were cultured in a CO₂-gas incubator at 37°C for 5 days, and the number of viable cells were determined by the MTT method. Antiviral activity is expressed by EC₅₀ (50% effective concentration), the concentration at which the agent protects 50% of the cells from injury by HIV infection, and cell toxicity by CC₅₀ (50% cell toxicity concentration), the concentration at which 50% of the cells are injured by the agent. Selectivity is measured by a selectivity index (S.I), which is expressed by CC₅₀/EC₅₀ (R. Pauwels, et al., J. of […], vol. 20, 1988, pp. 309-321).

MT-4 Cell [1] = assay: Cell toxicity to mock-infected MT-4 cells by MTT method; type: cell-based; settings: 5 days
Protocol: as §1

[2] = as above; type: cell-based; settings: human, 5 days, read-out: CC₅₀
Protocol: as §1

MT-4 Cell [3] = assay: Viable count of mock-infected MT-4 cells cultured with sample (trypan blue exclusion); type: cell-based
Protocol: Samples: MPS-1, MPS-2, MPS-3 and LPS-1 Cell and Virus: MT-4 Cell, MOLT-4 Cell HTLV as one HIV strain was prepared from the supernatant of the HIV-infected cells. The titer for the virus preparation (6 x 10⁵ plaque formation units/ml) was measured by the plaque assay method using MT-4 cells.
The MT-4 cells were mixed with HIV at 0.002MOI (multiplicity of infection), to be cultured at 37°C for 60 min. The virus-absorbing cells were washed and adjusted at 3 x 10⁵ cells/ml (the culture medium was RPMI1640 which supplemented with 10% heat-inactivated fetal calf serum and antibiotic). The suspension of the infected cells was cultured in the presence of the sample, and then cultured in a CO₂-containing atmosphere for 3 days. Then, the medium was replaced with the one containing the same quantity of the sample. Percentages of the viable cells and virus antigen positive cells were counted by the trypan blue exclusion method and indirect fluorescent antibody (IF) methods, respectively.
The test results are given in Tables 1 through 8, where the units for concentration, mock-infected cell count, infected cell count, percentage of HIV-antigen positive cell are µg/ml, x 10⁴cells/ml, and x 10⁴cells/ml, %, respectively.

HIV [4] = assay: HIV-induced cytopathic effect: viable count of HIV-infected MT-4 cells (trypan blue exclusion)
Protocol: (§2) The anti-HIV activity of each sample was evaluated by the HIV-induced cytopathic effect (CPE) and the expression of the virus-specific antigen.

HIV [5] = assay: Expression of virus-specific antigen in HIV-infected MT-4 cells (indirect fluorescent antibody method)
Protocol: as §2

[6] = 3rd day, concentration 25 µg/ml
[7] = 3rd day, concentration 50 µg/ml
[8] = 3rd day, concentration 100 µg/ml
[9] = 3rd day, concentration 200 µg/ml
[10] = 3rd day, concentration 500 µg/ml
[11] = 6th day, concentration 25 µg/ml
[12] = 6th day, concentration 50 µg/ml
[13] = 6th day, concentration 100 µg/ml
[14] = 6th day, concentration 200 µg/ml

Molecule “sodium salt of dodecyl 4-galactosyl-β-D-lactoside sulfate [GTS-2]” has an EC₅₀ (HTLV-IIIB) of 8.6 µg/mL and a CC₅₀ (MT-4 Cell [1]) of 858 µg/mL.
For `Cc1cn([C@H]2C[C@H](N=[N+]=[N-])[C@@H](CO)O2)c(=O)[nH]c1=O` [AZT, 3'-azide-3'-deoxythymidine, reference compound], the EC50 (HTLV-IIIB; Human immunodeficiency virus 1, IIIB, MT4, 120 h, read-out: EC₅₀) was 0.0019 µg/mL (≈ 0.00711 µM) and the CC50 at 120 h [2] was 3.06 µg/mL (≈ 11.5 µM).
Work on “sodium salt of dodecyl 4-galactosyl β-D-lactoside sulfate [GTS-1]” yielded an EC₅₀ (HTLV-IIIB) of 9.8 µg/mL.
“sodium salt of dodecyl β-D-laminaripentaoside sulfate [LPS-1-1]” gave an EC₅₀ (HTLV-IIIB) of 0.68 µg/mL and a CC₅₀ (MT-4 Cell [1]) of over 1000 µg/mL.
“sodium salt of sulfated dodecyl β-D-laminarpentaoside [LPS-1]” showed a Mock-infected cell count (MT-4 Cell [3]; [6]) of 151 x 10⁴cells/ml, a Mock-infected cell count (MT-4 Cell [3]; [7]) of 149 x 10⁴cells/ml and a Mock-infected cell count (MT-4 Cell [3]; [8]) of 136 x 10⁴cells/ml. For the same molecule, the Mock-infected cell count (MT-4 Cell [3]; [9]) was 120 x 10⁴cells/ml, the Mock-infected cell count (MT-4 Cell [3]; [10]) was 79 x 10⁴cells/ml and the Mock-infected cell count (MT-4 Cell [3]; [11]) was 145 x 10⁴cells/ml. It also gave a Mock-infected cell count (MT-4 Cell [3]; [12]) of 149 x 10⁴cells/ml, a Mock-infected cell count (MT-4 Cell [3]; [13]) of 140 x 10⁴cells/ml and a Mock-infected cell count (MT-4 Cell [3]; [14]) of 124 x 10⁴cells/ml. The HIV-infected cell count (HIV [4]; [6]) was 133 x 10⁴cells/ml, the HIV-infected cell count (HIV [4]; [7]) was 128 x 10⁴cells/ml and the HIV-infected cell count (HIV [4]; [8]) was 130 x 10⁴cells/ml. For the same molecule, the HIV-infected cell count (HIV [4]; [11]) was 88 x 10⁴cells/ml, the HIV-infected cell count (HIV [4]; [12]) was 150 x 10⁴cells/ml and the HIV-infected cell count (HIV [4]; [13]) was 107 x 10⁴cells/ml. For the same molecule, the “Percentage of HIV-antigen positive cell” value (HIV [5]; [6]) was 3%, the “Percentage of HIV-antigen positive cell” value (HIV [5]; [7]) was under 1% and the “Percentage of HIV-antigen positive cell” value (HIV [5]; [8]) was under 1%. For the same molecule, the “Percentage of HIV-antigen positive cell” value (HIV [5]; [9]) was under 1%, the “Percentage of HIV-antigen positive cell” value (HIV [5]; [10]) was under 1% and the “Percentage of HIV-antigen positive cell” value (HIV [5]; [11]) was 20%. The “Percentage of HIV-antigen positive cell” value (HIV [5]; [12]) was under 1%, the “Percentage of HIV-antigen positive cell” value (HIV [5]; [13]) was 0% and the “Percentage of HIV-antigen positive cell” value (HIV [5]; [14]) was 0%.
With “sodium salt of dodecyl maltohexaoside sulfate [MHS-2]” the EC₅₀ (HTLV-IIIB) was 3.91 µg/mL and the CC₅₀ (MT-4 Cell [1]) was over 1000 µg/mL.
With “sodium salt of n-decyl β-laminaripentaoside sulfate [LPS-3]” the EC₅₀ (HTLV-IIIB) was “= 67 µg/ml”.
With “sodium salt of octadecyl maltoheptaoside sulfate [MHS-1]” the EC₅₀ (HTLV-IIIB) was 2) > 40 µg/ml and the CC₅₀ (MT-4 Cell [1]) was 355 µg/mL.
In the case of “sodium salt of n-hexadecyl β-laminaripentaoside sulfate [LPS-2]”, the EC₅₀ (HTLV-IIIB) is reported as “= 17 µg/ml”.
Work on “sodium salt of octadecyl maltohexaoside sulfate [MHS-3]” yielded an EC₅₀ (HTLV-IIIB) of 10.36 µg/mL and a CC₅₀ (MT-4 Cell [1]) of 580 µg/mL.
For “sodium salt of octadecyl maltotrioside sulfate [MTS-1]”, the EC₅₀ (HTLV-IIIB) was 1) > 40 µg/ml and the CC₅₀ (MT-4 Cell [1]) was 329 µg/mL.
